Experimental data from patent US20090209937A1 (priority 2007, published 2009).
Entries after “also recorded” stand apart in the source; their conditions may differ.

Tests used:
[1] = system: audiogenic seizure susceptible mice; conditions: mouse, in vivo; cited from earlier work
[2] = system: fully-kindled rats; conditions: rat, in vivo
[3] = system: Non-kindled rats; conditions: rat, in vivo
[4] = system: fully amygdala kindled rats; conditions: rat, in vivo
[5] = system: amygdala and surrounding brain structures; conditions: rat, in vivo

Compound	protection against seizures [1]	body weight increase [2] [%]	resolution of tremor [2]	tremor after infusions of lower doses [2]	behavioral effects of the toxin infusion (in words) [3]	body weight gain [3] [%]	body weight loss [3] [%]	cumulative dose corresponding to the threshold for locomotor arrest [3] [nmol]	cumulative dose corresponding to the threshold for whole body tremors [3] [nmol]	onset of locomotor activity arrest following the infusion [3] [min]	onset of rhythmic whole body tremors following the infusion [3] [min]	persistence of tremors [3] [h]	rats exhibiting locomotor activity arrest followed by whole body tremors [3]	time of maximum increase in AD threshold / maximum protective effect after CED infusion [4] [h]	tissue damage after repeated CED infusions (cresyl violet and silver staining) [5]	adverse neurological or behavioral effects [2]	increase in mean AD threshold and decreases in mean seizure stage and mean behavioral seizure duration vs vehicle (p value) [4]	kindling measures vs vehicle at later time points [4]	time course of activity after CED infusion (in words) [4]
ω-conotoxin GVIA [ω-CTX-G]	protected against seizures	0.1±2.1	resolved by the third day after the infusion	No tremor was observed	no or only mild behavioral effects	3.0±1.8	10.3±0.9	0.013 ± 0.001	0.027 ± 0.002	5.0 ± 0.4	10.8 ± 0.9	24	All six	48	minimal damage	–	–	–	–
NC(=O)N1c2ccccc2C=Cc2ccccc21 [carbamazepine]	–	–	–	–	–	–	–	–	–	–	–	–	–	–	–	not associated with any observable adverse neurological or behavioral effects	< 0.05	no differences	apparent at 20 min but not at 24 h; also recorded: active at 20 min but not at 24 h
